According to PMC12455130, “Multifunctional molecular agent for tau-targeted combinational therapy of Alzheimer’s disease” (The Journal of Biological Chemistry, 2025):

Tests used:
tau peptide R3 [1] = biological target: T1, tau peptide R3 (Homo sapiens, UniProt P10636); experiment: ThS assay, heparin-induced R3 aggregation (kinetics and dose-response); format: biochemical; settings: for IC50: 3 h at 37 °C, ThS fluorescence; for inhibition of R3 assembly (ThS kinetics): 5, 10 and 40 μM, 15 μM R3, heparin
T1 construct: R3 (^306VQIVYK PVDLSK VTSKCG SLGNIH HKPGGG Q^336) and rabbit anti-tau antibody were purchased from MuJin; purchased MuJin
T1 sequence (P10636 623-653 limits assumed): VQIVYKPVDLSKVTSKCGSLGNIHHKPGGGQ
Method: The inhibition effect of 4GA–2GA on R3 aggregation was explored by thioflavin S (ThS) assay ([24]). In general, the kinetics of R3 aggregation in the absence or the presence of 4GA, 2GA was assessed by measuring the emission intensity of ThS at 500 nm, which reflects the amount of R3 aggregates. As the control experiments, the aggregation kinetics of 4ME and GA were also carried out. While induced by heparin, R3 aggregates rapidly at 37 °C, and the fluorescence of ThS reaches a maximum after an average time of 200 s (Fig. 4A). Based on the aforementioned conditions, the inhibitory ability of our synthetic compounds at three different concentrations (5, 10, and 40 μM) was tested.
Next, the dose–response inhibitory effects of our synthetic compounds on R3 aggregation were investigated. The detailed experimental operation was descripted in ESI. […] The apparent values of IC50 were calculated according to the dose−response curve.
Tau peptide R3 was adjusted to a concentration of 15 μM using 50 mM Tris−HCl buffer (pH 7.4), ThS (final concentration of 10 μM), and different amounts of 4GA, 2GA, 4ME, and GA (final concentration of 0, 5, 10, and 40 μM) as the aggregation inhibitor were added in1to the reaction mixture. Aggregation was induced by adding heparin to the solution (final concentration of 3.8 μM); the kinetics of each sample was immediately monitored by a fluorescence spectrophotometer with a 10-mm quartz cell at 440/500 nm (excitation/emission). A circulating water bath was necessary to maintain the temperature at 37 °C.
Tau peptide R3 was adjusted to a concentration of 15 μM using 50 mM Tris–HCl buffer (pH 7.4). Different amounts of 4GA, 2GA, 4ME, and GA (final concentration of 0, 1, 2, 4, 6, 10, 15, 20, 30, 40, 60, or 80 μM) as the aggregation inhibitors were added into the reaction mixture. Aggregation was induced by adding heparin to the solution (final concentration of 3.8 μM), After 3 h incubation at 37°C, ThS (final concentration of 10 μM) was added, and the fluorescence intensity at 440/500 nm (excitation/emission) was recorded on Hitachi F-7000 with a 10-mm quartz cell. The dose−response inhibitory effects of R3 aggregation were expressed by the aggregation percentage, which was calculated according to the following (Formula 4.3):(4.3) aggregation%=F-F0/Ft-F0×100
where F0 = fluorescence intensity of R3 monomer, Ft = fluorescence intensity of R3 aggregate, and F = fluorescence intensity of R3 aggregate in the presence of inhibitors. The IC50 values were also calculated according to the dose−response inhibitory effects.
Tau peptide R3 was adjusted to a concentration of 15 μM using Tris−HCl buffer (pH 7.4), and the synthetic compounds (4GA, 2GA, together with 4ME, GA as the comparison) at different concentrations, as aggregation inhibitor, were added into the reaction mixture separately. Aggregation was induced by heparin, and incubated at 37 °C for 3 h. By introducing fluorescence probe ThS, the dose−response inhibitory effects on R3 aggregation were recorded, according to normalized ThS fluorescence intensity (excitation: 440 nm, emission: 500 nm).
Figure S14. Inhibitory effects of N-substituted Azacrown on heparin-induced R3 aggregation, exermined by ThS fluorescence: 15 μM R3 and 3.8 μM heparin with cyclen, 1ME, 2ME, 3ME, and 4ME (80 μM) was incubated respectively at 37°C for 3h. 10 μM ThS was added to each of the solution, Spectra of ThS fluorescence were recorded at Ex440 nm.

tau peptide R3 [2] = biological target: T1, tau peptide R3; experiment: ThS assay, Cu2+-promoted heparin-induced R3 aggregation; format: biochemical; settings: R3 15 μM, Cu2+ 3.8 μM, compound 10 μM, heparin 3.8 μM, 3 h
Text: Metal ions, especially Cu^2+, are believed to be highly compatible with cysteine residues of tau peptide as a coordination center ([26]). Accompanied by the formation of intermolecular S–Cu–S bridging coordination bond, or intermolecular disulfide bond, these metal ions have been proven to promote tau aggregation ([27]). After confirming that 4GA and 2GA can effectively remove copper ions through coordination, we further explore their effects on R3 aggregation under the promotion of Cu^2+. […] Heparin was used to initiate the aggregation ([15]). […] As a comparison, the effects of the precursor compounds: 4ME, 3ME, 2ME, and 1ME, on Cu^2+-promoted R3 aggregation were also examined (Fig. S15).
Figure 5 Kinetic curves and TEM image of R3 aggregation with 4GA or 2GA.A, kinetic curves of the R3 (15 μM) aggregation monitored by ThS fluorescence assay in different conditions. B, ThS fluorescence intensity of R3 (15 μM) incubated for 3 h in different conditions. C, TEM image of R3 fibrils in different conditions. Negatively stained with uranyl acetate. Scale bar represents 200 nm. Final concentrations of R3, Cu^2+, and inhibitors are 15, 3.8, and 10 μM, respectively. All aggregations were initiated by heparin (3.8 μM). 2GA, (4,10-dimethyl-1,4,7,10-tetraazacyclododecane-1,7-diyl)bis((3,4,5-trihydroxyphenyl)methanone); 4GA, (1,4,7,10-tetraazacyclododecane-1,4,7,10-tetrayl)tetrakis((3,4,5-trihydroxyphenyl)methanone); TEM, transmission electron microscopy; ThS, thioflavin S.
The promotion of Cu^2+ on R3 aggregation was also inspected, similar to the aforementioned operation, unless that 3.8 μM Cu^2+ was also included, and using 50 mM Hepes (pH 7.4) as the buffer solution.
Fig. S15 ThS fluorescence intensity of R3 (15 µM) incubated for 3 h. Final concentrations of R3, Cu^2+, and compounds are 15, 3.8 and 10 µM, respectively. All aggregations were initiated by heparin (3.8 µM).

SK-N-SH cells = experiment: Cell viability assay (CCK-8); format: cell-based; settings: for SK-N-SH cells dead: 80 μM, 24 h incubation; for cytotoxicity (cell viability): SK-N-SH, concentration up to 40 μM
Method: However, we still face challenges to improve their therapeutic effects while reducing neurotoxicity. Therefore, a systematic investigation on the cytotoxicity of our new synthetic compounds was carried out. Herein, human neuroblastoma cells (SK-N-SH) were utilized for standard cell viability assay (Cell Counting Kit-8 [CCK-8] assay).
The human neuroblastoma cell (SK-N-SH) was obtained from the Chinese Academy of Sciences stem cell bank. Cells were maintained in Dulbecco’s modified Eagle’s medium (DMEM) supplemented with 10% fetal bovine serum (FBS), 100 U/ml penicillin G, and 100 μg/ml streptomycin at 37 °C in a humidified atmosphere containing 5% CO2.
Cells were plated in 96-well plate at a density of 1 × 10^4 in 100 μl medium per well for 24 h. Then, the FBS-free medium containing the tested compounds at different concentrations was used to replace the old medium. After 24 h incubation, 100 μl of FBS-free DMEM containing 10% CCK-8 was added into each well to replace the old medium. After 2 h incubation, the absorbance at 450 nm was measured by SpectraMax iD3 (Molecular Devices).

| SMILES | effect on heparin-induced R3 aggregation (ThS fluorescence at 500 nm) (tau peptide R3 [1]; 80 μM compound, 15 μM R3, 3.8 μM heparin, 37 °C, 3 h) | ThS fluorescence intensity of R3 aggregation in the presence of Cu2+ (tau peptide R3 [2]) | cytotoxicity (survival rate of SK-N-SH cells) (SK-N-SH cells; dose-dependent test, 24 h) | IC50 (tau peptide R3 [1]; 15 μM R3, 3.8 μM heparin) [µM] | inhibition of R3 assembly (ThS kinetics) (tau peptide R3 [1]; 37 °C) | SK-N-SH cells dead (SK-N-SH cells) [%] | cytotoxicity (cell viability) (SK-N-SH cells; 24 h) |
| --- | --- | --- | --- | --- | --- | --- | --- |
| CN1CCN(C)CCN(C)CCN(C)CC1 [4ME, 1,4,7,10-tetramethyl-1,4,7,10-tetraazacyclododecane, reference compound] | did not hinder the aggregation of R3 peptides | only to a level close to the case of R3 aggregation in the absence of Cu^2+ | negligible |  |  |  |  |
| O=C(O)c1cc(O)c(O)c(O)c1 [GA, gallic acid, reference compound] |  |  |  | > 80 |  |  |  |
| O=C(c1cc(O)c(O)c(O)c1)N1CCN(C(=O)c2cc(O)c(O)c(O)c2)CCN(C(=O)c2cc(O)c(O)c(O)c2)CCN(C(=O)c2cc(O)c(O)c(O)c2)CC1 [4GA, (1,4,7,10-tetraazacyclododecane-1,4,7,10-tetrayl)tetrakis((3,4,5-trihydroxyphenyl)methanone)] |  | dropped dramatically, to a level lower than the case of R3 aggregation in the absence of Cu^2+ |  | 3.8 | strongly inhibited R3 assembly | 40.5 | insignificant cytotoxicity |
| CN1CCN(C(=O)c2cc(O)c(O)c(O)c2)CCN(C)CCN(C(=O)c2cc(O)c(O)c(O)c2)CC1 [2GA, (4,10-dimethyl-1,4,7,10-tetraazacyclododecane-1,7-diyl)bis((3,4,5-trihydroxyphenyl)methanone)] |  | dropped dramatically, to a level lower than the case of R3 aggregation in the absence of Cu^2+ |  | 5.5 | strongly inhibited R3 assembly | 34.2 | insignificant cytotoxicity |
